Results from patent US10358436B2, “Kinase inhibitors and method of treating cancer” (University Health Network, priority 2010, dated 2019).

Experiments:
Abl (H396P) = Abl (H396P) (Homo sapiens (Human), UniProt P00519, H396P); type: biochemical; details: read-out: % Inhibition @ 0.1 μM, Abl (H396P)
Bmx = Bmx (Homo sapiens (Human), UniProt P51813); type: biochemical; details: read-out: % Inhibition @ 0.1 μM, Bmx
Ret (V804L) = Ret (V804L) (Homo sapiens (Human), UniProt P07949, V804L); type: biochemical; details: read-out: % Inhibition @ 0.1 μM, Ret (V804L)
Abl (Y253F) = Abl (Y253F) (Homo sapiens (Human), UniProt P00519, Y253F); type: biochemical; details: read-out: % Inhibition @ 0.1 μM, Abl (Y253F)
EphA1 = EphA1 (Homo sapiens (Human), UniProt P21709); type: biochemical; details: read-out: % Inhibition @ 0.1 μM, EphA1
Abl (T315I) = Abl (T315I) (Homo sapiens (Human), UniProt P00519, T315I); type: biochemical; details: read-out: % Inhibition @ 0.1 μM, Abl (T315I)
FGFR2 = FGFR2 (Homo sapiens (Human), UniProt P21802); type: biochemical; details: read-out: % Inhibition @ 0.1 μM, FGFR2
EphB1 = EphB1 (Homo sapiens (Human), UniProt P54762); type: biochemical; details: read-out: % Inhibition @ 0.1 μM, EphB1
Arg = Arg (Homo sapiens (Human), UniProt P42684); type: biochemical; details: read-out: % Inhibition @ 0.1 μM, Arg
Lck = Lck (Homo sapiens (Human), UniProt P06239); type: biochemical; details: read-out: % Inhibition @ 0.1 μM, Lck
ARK5 = ARK5 (Homo sapiens (Human), UniProt O60285); type: biochemical; details: read-out: % Inhibition @ 0.1 μM, ARK5
TRKA = TRKA (Homo sapiens (Human), UniProt P04629); type: biochemical; details: read-out: % Inhibition @ 0.1 μM, TrkA
Tie2 = Tie2 (Homo sapiens (Human), UniProt Q02763); type: biochemical; details: read-out: % Inhibition @ 0.1 μM, Tie2
GCK = GCK (Homo sapiens (Human), UniProt Q12851); type: biochemical; details: read-out: % Inhibition @ 0.1 μM, GCK
Tie2 (R849W) = Tie2 (R849W) (Homo sapiens (Human), UniProt Q02763, R849W); type: biochemical; details: read-out: % Inhibition @ 0.1 μM, Tie2 (R849W)
Tie2 (Y897S) = Tie2 (Y897S) (Homo sapiens (Human), UniProt Q02763, Y897S); type: biochemical; details: read-out: % Inhibition @ 0.1 μM, Tie2 (Y897S)
Aurora B = Aurora B (Homo sapiens (Human), UniProt Q96GD4); details: read-out: % Inhibition @ 0.1 μM, Aurora-B
Ron = Ron (Homo sapiens (Human), UniProt Q04912); type: biochemical; details: read-out: % Inhibition @ 0.1 μM, Ron
Arg (m) = Arg (m) (Mus musculus (Mouse), UniProt Q4JIM5); type: biochemical; details: read-out: % Inhibition @ 0.1 μM, Arg (m)
TrkB = TrkB (Homo sapiens (Human), UniProt Q16620); assay: biochemical; details: read-out: % Inhibition @ 0.1 μM, TrkB
IRAK1 = IRAK1 (Homo sapiens (Human), UniProt P51617); type: biochemical; details: read-out: % Inhibition @ 0.1 μM, IRAK1
FLT3 = FLT3 (Homo sapiens (Human), UniProt P36888); details: read-out: % Inhibition @ 0.1 μM, Flt3
MuSK = MuSK (Homo sapiens (Human), UniProt O15146); type: biochemical; details: read-out: % Inhibition @ 0.1 μM, MuSK
Abl (Q252H) = Abl (Q252H) (Homo sapiens (Human), UniProt P00519, Q252H); type: biochemical; details: read-out: % Inhibition @ 0.1 μM, Abl (Q252H)
Abl (M351T) = Abl (M351T) (Homo sapiens (Human), UniProt P00519, M351T); type: biochemical; details: read-out: % Inhibition @ 0.1 μM, Abl (M351T)
Aurora A = Aurora A (Homo sapiens (Human), UniProt O14965); type: biochemical; details: read-out: % Inhibition @ 0.1 μM, Aurora-A
Itk = Itk (Homo sapiens (Human), UniProt Q08881); type: biochemical; details: read-out: % Inhibition @ 0.1 μM, Itk
FGFR1 = FGFR1 (Homo sapiens (Human), UniProt P11362); type: biochemical; details: read-out: % Inhibition @ 0.1 μM, FGFR1
FGFR2 (N549H) = FGFR2 (N549H) (Homo sapiens (Human), UniProt P21802, N549H); type: biochemical; details: read-out: % Inhibition @ 0.1 μM, FGFR2 (N549H)
Lck activated = Lck activated (Homo sapiens (Human), UniProt P06239); type: biochemical; details: read-out: % Inhibition @ 0.1 μM, Lck activated
FGFR1 (V561M) = FGFR1 (V561M) (Homo sapiens (Human), UniProt P11362, V561M); type: biochemical; details: read-out: % Inhibition @ 0.1 μM, FGFR1 (V561M)
FGFR3 = FGFR3 (Homo sapiens (Human), UniProt P22607); type: biochemical; details: read-out: % Inhibition @ 0.1 μM, FGFR3
Abl = Abl (Homo sapiens (Human), UniProt P00519); type: biochemical; details: read-out: % Inhibition @ 0.1 μM, Abl
Ros = Ros (Homo sapiens (Human), UniProt P08922); type: biochemical; details: read-out: % Inhibition @ 0.1 μM, Ros
Abl (m) = Abl (m) (Mus musculus (Mouse), UniProt P00520); type: biochemical; details: read-out: % Inhibition @ 0.1 μM, Abl (m)
ALK = ALK (Homo sapiens (Human), UniProt Q9UM73); type: biochemical; details: read-out: % Inhibition @ 0.1 μM, ALK

Chain of FGFR1 (V561M) (P11362 22-822 V561M): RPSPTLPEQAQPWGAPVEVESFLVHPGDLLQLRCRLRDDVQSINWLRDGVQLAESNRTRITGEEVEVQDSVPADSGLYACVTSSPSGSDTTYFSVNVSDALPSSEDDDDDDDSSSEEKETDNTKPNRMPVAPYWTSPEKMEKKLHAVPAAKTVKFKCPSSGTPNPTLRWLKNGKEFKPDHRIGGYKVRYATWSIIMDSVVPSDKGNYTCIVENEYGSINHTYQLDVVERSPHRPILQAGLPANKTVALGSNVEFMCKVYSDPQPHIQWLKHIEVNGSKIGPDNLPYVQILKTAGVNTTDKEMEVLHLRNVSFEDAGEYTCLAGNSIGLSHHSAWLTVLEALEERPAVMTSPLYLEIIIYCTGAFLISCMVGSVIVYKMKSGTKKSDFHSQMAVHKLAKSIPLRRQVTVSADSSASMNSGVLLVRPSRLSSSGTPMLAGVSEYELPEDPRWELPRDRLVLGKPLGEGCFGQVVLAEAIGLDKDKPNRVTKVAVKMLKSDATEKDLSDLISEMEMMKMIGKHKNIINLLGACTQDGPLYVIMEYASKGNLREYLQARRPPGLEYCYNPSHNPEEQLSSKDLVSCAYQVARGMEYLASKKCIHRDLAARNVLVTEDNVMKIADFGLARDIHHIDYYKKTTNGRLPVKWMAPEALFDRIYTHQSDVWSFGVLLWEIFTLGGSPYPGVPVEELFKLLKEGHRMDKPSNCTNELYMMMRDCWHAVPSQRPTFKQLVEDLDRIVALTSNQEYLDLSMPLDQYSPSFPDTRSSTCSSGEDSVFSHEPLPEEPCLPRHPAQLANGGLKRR
Chain of FGFR2 (P21802 22-821): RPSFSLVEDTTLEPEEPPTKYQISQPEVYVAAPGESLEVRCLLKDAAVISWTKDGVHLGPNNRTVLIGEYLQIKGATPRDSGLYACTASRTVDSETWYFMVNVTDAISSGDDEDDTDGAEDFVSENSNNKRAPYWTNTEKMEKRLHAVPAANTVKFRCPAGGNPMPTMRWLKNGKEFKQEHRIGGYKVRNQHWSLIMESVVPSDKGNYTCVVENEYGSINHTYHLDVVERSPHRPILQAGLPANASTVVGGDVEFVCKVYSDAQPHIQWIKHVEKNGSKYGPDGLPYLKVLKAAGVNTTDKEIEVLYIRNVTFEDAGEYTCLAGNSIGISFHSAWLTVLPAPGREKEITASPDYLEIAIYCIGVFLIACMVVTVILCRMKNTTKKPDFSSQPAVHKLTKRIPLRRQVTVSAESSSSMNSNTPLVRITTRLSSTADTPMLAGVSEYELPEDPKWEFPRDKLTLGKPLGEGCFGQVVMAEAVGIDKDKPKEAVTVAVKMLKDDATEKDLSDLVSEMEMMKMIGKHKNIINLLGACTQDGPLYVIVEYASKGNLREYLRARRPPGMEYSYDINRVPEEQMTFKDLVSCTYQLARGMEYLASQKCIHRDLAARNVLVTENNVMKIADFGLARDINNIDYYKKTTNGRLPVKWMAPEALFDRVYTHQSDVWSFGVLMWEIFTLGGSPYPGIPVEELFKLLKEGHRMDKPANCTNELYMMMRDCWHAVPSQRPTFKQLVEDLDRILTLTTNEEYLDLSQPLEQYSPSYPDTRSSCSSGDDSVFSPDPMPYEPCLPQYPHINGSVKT
Chain of Arg (P42684 whole entry): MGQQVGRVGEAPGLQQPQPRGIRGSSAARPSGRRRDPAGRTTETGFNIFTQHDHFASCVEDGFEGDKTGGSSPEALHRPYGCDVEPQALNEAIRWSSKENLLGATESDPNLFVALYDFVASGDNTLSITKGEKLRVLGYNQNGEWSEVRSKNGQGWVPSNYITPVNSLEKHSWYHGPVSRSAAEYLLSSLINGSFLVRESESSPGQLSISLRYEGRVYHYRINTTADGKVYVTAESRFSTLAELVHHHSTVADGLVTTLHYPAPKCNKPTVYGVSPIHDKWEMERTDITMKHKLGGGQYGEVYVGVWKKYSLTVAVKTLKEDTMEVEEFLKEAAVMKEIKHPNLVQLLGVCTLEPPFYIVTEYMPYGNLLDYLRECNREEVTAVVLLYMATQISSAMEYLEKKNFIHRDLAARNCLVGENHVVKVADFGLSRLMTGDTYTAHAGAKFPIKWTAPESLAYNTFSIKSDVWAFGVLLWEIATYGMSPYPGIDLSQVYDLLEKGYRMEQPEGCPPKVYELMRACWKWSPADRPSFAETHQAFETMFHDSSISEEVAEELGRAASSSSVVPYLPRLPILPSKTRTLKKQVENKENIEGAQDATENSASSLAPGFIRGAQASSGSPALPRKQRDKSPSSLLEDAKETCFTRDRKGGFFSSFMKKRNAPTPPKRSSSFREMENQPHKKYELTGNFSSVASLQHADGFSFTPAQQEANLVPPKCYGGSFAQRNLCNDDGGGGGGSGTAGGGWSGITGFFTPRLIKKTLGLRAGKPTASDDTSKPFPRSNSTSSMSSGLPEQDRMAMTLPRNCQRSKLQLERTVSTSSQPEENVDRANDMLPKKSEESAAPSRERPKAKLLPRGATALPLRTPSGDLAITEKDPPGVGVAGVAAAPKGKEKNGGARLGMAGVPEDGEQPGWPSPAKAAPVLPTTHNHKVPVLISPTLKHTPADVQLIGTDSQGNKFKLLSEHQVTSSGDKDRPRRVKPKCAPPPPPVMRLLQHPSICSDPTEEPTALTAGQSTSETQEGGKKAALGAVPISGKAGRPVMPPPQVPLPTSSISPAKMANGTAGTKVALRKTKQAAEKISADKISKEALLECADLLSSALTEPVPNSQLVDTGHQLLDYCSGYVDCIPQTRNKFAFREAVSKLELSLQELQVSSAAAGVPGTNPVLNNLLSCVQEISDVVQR
Chain of TRKA (P04629 33-796): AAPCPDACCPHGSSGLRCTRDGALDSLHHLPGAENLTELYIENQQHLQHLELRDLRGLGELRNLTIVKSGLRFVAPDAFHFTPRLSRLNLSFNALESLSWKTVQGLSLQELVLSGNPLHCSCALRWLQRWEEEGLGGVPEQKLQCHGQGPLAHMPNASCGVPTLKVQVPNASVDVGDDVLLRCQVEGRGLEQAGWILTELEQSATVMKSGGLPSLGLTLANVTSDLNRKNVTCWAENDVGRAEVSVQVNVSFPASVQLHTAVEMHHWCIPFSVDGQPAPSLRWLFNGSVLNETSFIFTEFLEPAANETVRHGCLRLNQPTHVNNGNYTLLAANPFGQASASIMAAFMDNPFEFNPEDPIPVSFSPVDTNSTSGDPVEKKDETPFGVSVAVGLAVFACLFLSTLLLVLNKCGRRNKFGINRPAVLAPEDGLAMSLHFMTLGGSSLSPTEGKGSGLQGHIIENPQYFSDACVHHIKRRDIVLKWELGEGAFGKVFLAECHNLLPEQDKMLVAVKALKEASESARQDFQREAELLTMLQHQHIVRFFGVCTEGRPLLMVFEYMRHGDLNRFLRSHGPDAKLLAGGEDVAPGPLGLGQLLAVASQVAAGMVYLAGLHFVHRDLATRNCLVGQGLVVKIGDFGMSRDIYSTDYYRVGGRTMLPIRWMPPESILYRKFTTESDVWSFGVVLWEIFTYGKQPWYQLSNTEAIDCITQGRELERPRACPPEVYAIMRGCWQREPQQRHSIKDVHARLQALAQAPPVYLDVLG
Chain of EphA1 (P21709 26-976): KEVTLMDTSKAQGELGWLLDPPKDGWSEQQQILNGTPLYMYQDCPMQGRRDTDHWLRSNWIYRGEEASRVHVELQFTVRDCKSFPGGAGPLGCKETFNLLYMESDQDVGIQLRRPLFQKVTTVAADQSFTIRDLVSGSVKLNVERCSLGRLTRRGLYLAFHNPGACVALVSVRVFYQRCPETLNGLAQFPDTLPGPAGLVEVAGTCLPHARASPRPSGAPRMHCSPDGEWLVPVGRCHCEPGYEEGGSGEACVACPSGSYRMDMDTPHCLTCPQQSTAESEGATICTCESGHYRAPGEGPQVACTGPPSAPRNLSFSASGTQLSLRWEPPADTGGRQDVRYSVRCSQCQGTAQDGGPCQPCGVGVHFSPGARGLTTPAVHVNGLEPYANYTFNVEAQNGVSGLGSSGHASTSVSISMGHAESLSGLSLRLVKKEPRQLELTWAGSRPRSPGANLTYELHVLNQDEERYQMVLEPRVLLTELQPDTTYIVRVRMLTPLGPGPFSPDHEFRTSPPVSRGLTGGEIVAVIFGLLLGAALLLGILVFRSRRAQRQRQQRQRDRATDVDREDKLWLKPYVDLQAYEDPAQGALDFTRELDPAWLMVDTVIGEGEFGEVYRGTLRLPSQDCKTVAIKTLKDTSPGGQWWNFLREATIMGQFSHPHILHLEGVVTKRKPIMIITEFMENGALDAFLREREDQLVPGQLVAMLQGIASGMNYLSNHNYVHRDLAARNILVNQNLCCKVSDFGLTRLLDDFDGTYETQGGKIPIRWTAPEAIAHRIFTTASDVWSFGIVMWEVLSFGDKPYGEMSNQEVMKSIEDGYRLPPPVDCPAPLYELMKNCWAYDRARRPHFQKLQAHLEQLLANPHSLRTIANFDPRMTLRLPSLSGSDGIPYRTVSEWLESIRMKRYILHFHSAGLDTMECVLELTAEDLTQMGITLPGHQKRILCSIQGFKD
Chain of Aurora B (Q96GD4 whole entry): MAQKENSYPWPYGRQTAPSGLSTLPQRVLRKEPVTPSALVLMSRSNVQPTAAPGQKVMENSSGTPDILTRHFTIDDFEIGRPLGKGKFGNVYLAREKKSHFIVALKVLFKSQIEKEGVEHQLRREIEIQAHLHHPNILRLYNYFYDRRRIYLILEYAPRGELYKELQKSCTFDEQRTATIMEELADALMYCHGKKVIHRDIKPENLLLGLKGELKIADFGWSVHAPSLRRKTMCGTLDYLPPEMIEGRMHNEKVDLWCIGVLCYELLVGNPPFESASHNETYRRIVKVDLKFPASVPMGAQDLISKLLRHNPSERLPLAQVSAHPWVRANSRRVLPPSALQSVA
Chain of FGFR1 (P11362 22-822): as the sequence (P11362 22-822 V561M) above, with M540V counted along it
Chain of FGFR2 (N549H) (P21802 22-821 N549H): as the sequence (P21802 22-821) above, with N528H counted along it

Structure (SMILES): COc1ccc2c(c1)[C@]1(C[C@H]1c1ccc3c(/C=C/c4ccc(N5CCN(C)CC5)nc4)n[nH]c3c1)C(=O)N2 [Example A33, (1R,2S)-5′-methoxy-2-(3-((E)-2-(6-(4-methylpiperazin-1-yl)pyridin-3-yl)vinyl)-1H-indazol-6-yl)spiro[cyclopropane-1,3′-indolin]-2′-one 2,2,2-trifluoroacetate]
- inhibition at 0.1 µM (Abl (H396P)): 93%
- inhibition at 0.1 µM (Bmx): 68%
- inhibition at 0.1 µM (Ret (V804L)): 43%
- inhibition at 0.1 µM (Abl (Y253F)): 78%
- inhibition at 0.1 µM (EphA1): 22%
- inhibition at 0.1 µM (Abl (T315I)): 94%
- inhibition at 0.1 µM (FGFR2): 82%
- inhibition at 0.1 µM (EphB1): 34%
- inhibition at 0.1 µM (Arg): 94%
- inhibition at 0.1 µM (Lck): 48%
- inhibition at 0.1 µM (ARK5): 67%
- inhibition at 0.1 µM (TRKA): 97%
- inhibition at 0.1 µM (Tie2): 83%
- inhibition at 0.1 µM (GCK): 51%
- inhibition at 0.1 µM (Tie2 (R849W)): 40%
- inhibition at 0.1 µM (Tie2 (Y897S)): 49%
- inhibition at 0.1 µM (Aurora B): 100%
- inhibition at 0.1 µM (Ron): 42%
- inhibition at 0.1 µM (Arg (m)): 96%
- inhibition at 0.1 µM (TrkB): 98%
- inhibition at 0.1 µM (IRAK1): 24%
- inhibition at 0.1 µM (FLT3): 28%
- inhibition at 0.1 µM (MuSK): 18%
- inhibition at 0.1 µM (Abl (Q252H)): 83%
- inhibition at 0.1 µM (Abl (M351T)): 95%
- inhibition at 0.1 µM (Aurora A): 96%
- inhibition at 0.1 µM (Itk): 34%
- inhibition at 0.1 µM (FGFR1): 87%
- inhibition at 0.1 µM (FGFR2 (N549H)): 75%
- inhibition at 0.1 µM (Lck activated): 41%
- inhibition at 0.1 µM (FGFR1 (V561M)): 91%
- inhibition at 0.1 µM (FGFR3): 91%
- inhibition at 0.1 µM (Abl): 72%
- inhibition at 0.1 µM (Ros): 23%
- inhibition at 0.1 µM (Abl (m)): 96%
- inhibition at 0.1 µM (ALK): 32%
